In patent publication US20130149331A1, “RHAMNOSE AND FORSSMAN CONJUGATED IMMUNOGENIC AGENTS” (priority 2011, published 2013):

Tested on: anti-Rha antibodies in normal human serum
Assay: Competitive ELISA assay with free monosaccharides, BSA-R1 immobilized
Assay type: binding
Conditions: free monosaccharide 200 mM to 12.5 mM; human serum 1:2000; anti-human IgG detection
Procedure: Competitive ELISA assay. To further verify the specific antibody against Rha epitopes, inhibition ELISA was performed by immobilizing Rha conjugated BSA (BSA-R1) (10 μg ml^−1) on the 96-well plate, and free D-mannose (Man), D-glucose (Glc), N-Acetyl-Dglucosamine (GlcNAc), D-xylose (Xyl), L-fucose (Fuc), N-Acetyl-D-galactosamine (GalNAc), D-galactose (Gal) and L-rhamnose (Rha) were used as competing antigens (2-fold dilutions from 200 mM to 12.5 mM). After coated with BSA-R1 at 4° C. overnight, the solution was depleted and washed by PBST for three times (three minutes each time). Then, the plate was blocked with 5% (w/v) non-fat milk (PBST) in RT for 1.5 h, and rinsed by PBST once. Normal human serum diluted (1:2000) previously, containing different free monosaccharide at different concentration, was added into the 96-well plate with 0.1 mL per well. After 2 h incubation, the plate was rinsed by PBST 3 times. Then 0.1 mL Horseradish Peroxidase (HRP)-conjugated antihuman IgG antibody (1:3000) was added into each well and stayed in RT for 1 h. Finally, after the plates were washed, enzyme substrate tetramethylbenzidine (TMB) was added and allowed to react for 10-20 min before the enzymatic reaction was terminated by adding 1N HCl and the absorbance was read at wavelength of 450 nm in a FlexStation® 3 Microplate Reader (Molecular devices).

Structure (SMILES): C[C@H](O)[C@H](O)[C@@H](O)[C@@H](O)C=O [Rha, L-rhamnose]
- competition for antibodies in human serum: pulled down the antibodies
